{"source": "patent US7033593B2", "about": "“Immunogen comprising an HIV envelope protein, a ligand and H2 peptide” (priority 2000, dated 2006)", "key": {"[1]": {"tested_on": "gp41-gp120-sCD4 complex (ADA gp41, 89.6 gp120)", "test": "SPR binding of DP178 to gp41-gp120 and gp41-gp120-sCD4 complexes", "set-up": "species or system HIV", "details": "DP178 50 μg/ml", "description": "FIGS. 17A and 17B show induction of HR-2 peptide binding to gp120-gp41 complex. […] Soluble 89.6 gp120 (100 μg/ml) or a gp120-CD4 mixture (gp120 pre-incubated with 0.3 mg/ml of CD4 for 30 min) was injected at 5 μl/min for 10 min over a sensor surface immobilized with ADA gp41. At the end of the injections, wash buffer (PBS) was allowed to flow until the surface was stable with no baseline drift. Roughly 300 RU of gp120 and 850 RU of gp120-CD4 formed stable complexes with the immobilized gp41 surface. […] Thus both surfaces were stable and had equivalent amount of associated gp120 or gp120-CD4.\nIn the preparation of HIV 89.6 gp140 envelope, there is uncleaved gp140, and cleaved gp140 components of gp120 and gp41. Thus, it is possible that HR-2 peptide could be induced to bind uncleaved gp140 and/or could be induced to bind to cleaved gp120 and gp41."}, "HIV-1 89.6 gp120": {"target": "HIV-1 89.6 gp120 (Human immunodeficiency virus type 1 group M subtype B, UniProt Q73372)", "sequence (Q73372 32-508)": "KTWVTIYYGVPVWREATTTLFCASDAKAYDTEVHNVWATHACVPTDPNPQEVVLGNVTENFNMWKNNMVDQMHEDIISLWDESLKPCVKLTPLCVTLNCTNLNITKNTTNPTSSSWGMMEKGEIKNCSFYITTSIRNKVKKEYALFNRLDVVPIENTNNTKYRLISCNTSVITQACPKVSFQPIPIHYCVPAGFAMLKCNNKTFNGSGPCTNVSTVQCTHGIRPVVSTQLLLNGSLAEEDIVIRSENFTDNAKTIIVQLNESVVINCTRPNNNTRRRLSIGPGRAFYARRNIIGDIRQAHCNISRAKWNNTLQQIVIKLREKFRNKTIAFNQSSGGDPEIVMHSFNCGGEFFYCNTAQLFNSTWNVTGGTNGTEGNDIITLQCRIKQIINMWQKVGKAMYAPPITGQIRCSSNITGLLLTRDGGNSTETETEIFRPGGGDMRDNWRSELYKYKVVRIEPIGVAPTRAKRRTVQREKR", "assay_type": "binding", "details": "absence of sCD4 or mAb A32, blot 29A lanes 3 and 4"}, "[2]": {"target": "T8-gp120 (HIV 89.6 gp120) (Human immunodeficiency virus type 1 group M subtype B, UniProt Q73372)", "sequence (Q73372 32-508)": "as above", "assay_type": "binding", "details": "SPR"}, "[3]": {"tested_on": "sCD4-gp140 (HIV 89.6 gp140)", "test": "SPR binding of HR-2 peptides to sCD4-gp140 complex", "description": "SPR biosensor measurements were determined on a BIACORE 3000 (BIACORE Inc., Uppsala, Sweden) instrument. […] Binding of proteins and peptides was monitored in real-time at 25° C. and with a continuous flow of PBS, pH 7.4 at […]. Analyte (proteins and peptides) were removed and the sensor surfaces were regenerated following each cycle of binding by single or duplicate […] of regeneration solution (10 mM glycine-HCl, pH 2.5 or 10 mM NaOH).\nAll analyses were performed using the non-linear fit method of O'Shannessy et al. (O'Shannessy et al, Anal. Biochem. 205:132–136 (1992)) and the BIAevaluation 3.0 software (BIACORE Inc). Rate and equilibrium constants were derived from curve fitting to the Langmuir equation for a simple bimolecular interaction (A+B=AB).\nA blank chip served as an in-line reference surface for subtraction of non-specific binding and bulk responses.\nSurface Plasmon Resonance Biosensor Measurements. SPR biosensor measurements were determined on a BIACORE 3000 (BIACORE Inc., Uppsala, Sweden) instrument. […] A blank in-line reference surface (activated and de-activated for amine coupling) was used to subtract non-specific or bulk responses. Binding of proteins and peptides (biotinylated or free DP178, T649Q26L, DP178-scrambled) was monitored in real-time at 25° C. with a continuous flow of PBS (150 mM NaCl, 0.005% surfactant p20), pH 7.4 at 10–30 μl/min. Analyte (proteins and peptides) were removed and the sensor surfaces were regenerated following each cycle of binding by single or duplicate 5–10 μl pulses of regeneration solution (10 mM glycine-HCl, pH 2.5 or 10 mM NaOH)."}}, "note": "“Also recorded” adds a separate entry of the source. Read-outs that look alike come from different tables or passages of the source.", "data": [{"substance": "enfuvirtide", "values": [{"measurement": "binding to gp41-gp120(-sCD4) complex compared to gp41 (in words)", "setting": "[1]", "value": "upregulated; also recorded: higher binding"}, {"measurement": "band density of precipitated gp120", "setting": "HIV-1 89.6 gp120", "value": 1.0, "unit": "ODunits/mm^2"}, {"measurement": "binding to gp120 on T8 mab surface (in words)", "setting": "[2]", "value": "neither HR-2 peptide bound"}, {"measurement": "binding to sCD4-gp140 surface (in words)", "setting": "[3]; SPR", "value": "much higher binding; also recorded: bound specifically"}, {"measurement": "Kd", "setting": "[3]; Scatchard plot, read-out: Keq (equilibrium binding constant)", "value": 1700, "unit": "nM"}, {"measurement": "kd (off-rate)", "setting": "[3]; cleaved gp140 after sCD4", "value": 0.0056, "unit": "s⁻¹"}, {"measurement": "Kd", "setting": "[3]; sCD4-gp140 complexes, without CCR5-D1, read-out: Kd", "value": 700, "unit": "nM"}, {"measurement": "Keq stronger than for recombinant gp41", "setting": "[3]; sCD4-gp140 vs gp41", "value": 10, "unit": "fold"}, {"measurement": "Rm (maximal binding at equilibrium)", "setting": "[3]; with sCD4", "value": 320, "unit": "RU"}, {"measurement": "increase of Rm by soluble CD4", "setting": "[3]; with vs without sCD4", "value": "~10", "unit": "fold"}]}]}
